Reference: US20260250318A1, “COMPOSITIONS AND METHODS FOR CROSSING THE BLOOD BRAIN BARRIER” (VOYAGER THERAPEUTICS, INC., priority 2022, published 2026)

What was measured:
Conditions in all cases: synthetic library passage 3, intravenous, relative to wild-type AAV9
[1] = test system: brain, spinal cord, and DRG of the NHPs; assay: NGS fold enrichment of synthetic library (passage 3) in NHPs, first cross-species screen; format: in vivo, cynomolgus macaques (Macaca fascicularis)
In short: (§1)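 Passage-3 synthetic capsid library given intravenously […] to NHPs (2-4 years) and BALB/c or C57Bl/6 mice (n=3, 6-8 weeks). After e.g. 28 days, tissue RNA was RT-PCR amplified and NGS-sequenced; values are fold enrichment of each variant relative to wild-type AAV9.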

[2] = test system: brain; assay: NGS fold enrichment of synthetic library (passage 3) in BALB/c mice, first cross-species screen; format: in vivo
In short: as §1

[3] = test system: brain; assay: NGS fold enrichment of synthetic library (passage 3) in C57Bl/6 mice, first cross-species screen; format: in vivo
In short: as §1

[4] = RNA from spinal cord of NHPs, NGS
[5] = RNA from brain of BALB/c mice, NGS
[6] = RNA from brain of C57Bl/6 mice, NGS

Row | Sequence | Fold enrichment over AAV9 in the brain of NHPs ([1]; RNA NGS, brain of NHPs) | Fold enrichment over AAV9 in the spinal cord of NHPs ([1]; RNA NGS, spinal cord of NHPs) | Fold enrichment over AAV9 in the brain of Mice (BALB/c) ([2]; RNA NGS, brain of BALB/c mice) | Fold enrichment over AAV9 in the brain of Mice (C57Bl/6) ([3]; RNA NGS, brain of C57Bl/6 mice) | Fold enrichment over AAV9 in the brain of NHPs ([1]; RNA from brain of NHPs, NGS) | Fold enrichment over AAV9 in the spinal cord of NHPs [1, 4] | Fold enrichment over AAV9 in the brain of Mice (BALB/c) [2, 5] | Fold enrichment over AAV9 in the brain of Mice (C57Bl/6) [3, 6]
1 | GSGLPVLSGQNQQT | 3.100 fold | 4.149 fold | 0.210 fold | 0.631 fold | – | – | – | –
2 | GSVTHGISGQNQQT | 2.105 fold | 4.542 fold | 0.789 fold | 1.135 fold | – | – | – | –
3 | GSGQNQQIISTKIT | – | – | – | – | 1.275 fold | 0.000 fold | 0.710 fold | 0.951 fold
4 | GSGQNQQLSAKSST | 1.809 fold | 1.567 fold | 1.115 fold | 1.224 fold | – | – | – | –
5 | GSQSTLGLGQNQQT | – | – | – | – | 1.204 fold | 3.246 fold | 0.400 fold | 0.594 fold
6 | GSGQNQRVSNSQQT | 2.146 fold | 0.492 fold | 0.985 fold | 1.086 fold | – | – | – | –
7 | GSGYASHVQQNQQT | 2.146 fold | 3.038 fold | 0.758 fold | 1.157 fold | – | – | – | –
8 | GSSHRFYGGQNQQT | 4.732 fold | 0.000 fold | 0.110 fold | 0.787 fold | – | – | – | –
9 | GSGQNQQTSLSNTA | 1.959 fold | 1.186 fold | 1.182 fold | 1.567 fold | – | – | – | –
10 | GSGMPVILGQNQQT | 2.005 fold | 0.150 fold | 0.287 fold | 0.840 fold | – | – | – | –
11 | GSRSQYDIGQNQQT | 1.706 fold | 0.112 fold | 0.193 fold | 0.528 fold | – | – | – | –
12 | GSRTLSNVGQNQQT | 1.640 fold | 3.219 fold | 0.542 fold | 0.617 fold | – | – | – | –
13 | GSGQNQQHSSKATT | – | – | – | – | 1.345 fold | 12.248 fold | 1.401 fold | 1.350 fold
14 | GSIAHVGTGQNQQT | 1.696 fold | 1.264 fold | 1.045 fold | 0.837 fold | – | – | – | –
15 | GIPSIRESGQNQQT | – | – | – | – | 1.282 fold | 0.166 fold | 0.254 fold | 0.484 fold
16 | GVHSLTPSGQNQQT | 1.687 fold | 4.104 fold | 0.215 fold | 0.475 fold | – | – | – | –
17 | GSGQIRQLVDNQQT | 1.657 fold | 5.529 fold | 0.272 fold | 0.314 fold | – | – | – | –
18 | GSGQNQQMAGAFRT | 1.003 fold | 1.784 fold | 0.762 fold | 1.307 fold | – | – | – | –
19 | GLGYPGSSGQNQQT | 1.763 fold | 7.090 fold | 0.577 fold | 0.929 fold | – | – | – | –
20 | GSGLRTMTTQNQQT | 1.900 fold | 8.939 fold | 0.594 fold | 0.838 fold | – | – | – | –

Row | Sequence | Fold enrichment over AAV9 in the brain of NHPs ([1]; RNA NGS, brain of NHPs) | Fold enrichment over AAV9 in the spinal cord of NHPs ([1]; RNA NGS, spinal cord of NHPs) | Fold enrichment over AAV9 in the brain of Mice (BALB/c) ([2]; RNA NGS, brain of BALB/c mice) | Fold enrichment over AAV9 in the brain of Mice (C57Bl/6) ([3]; RNA NGS, brain of C57Bl/6 mice) | Fold enrichment over AAV9 in the brain of NHPs ([1]; RNA from brain of NHPs, NGS) | Fold enrichment over AAV9 in the spinal cord of NHPs [1, 4] | Fold enrichment over AAV9 in the brain of Mice (BALB/c) [2, 5] | Fold enrichment over AAV9 in the brain of Mice (C57Bl/6) [3, 6]
21 | GSGQNQQALHNPHT | 1.553 fold | 0.664 fold | 0.213 fold | 0.638 fold | – | – | – | –
22 | GSGGGLQHNQNQQT | – | – | – | – | 1.163 fold | 4.098 fold | 0.778 fold | 1.137 fold
23 | GSIGYAGQGQNQQT | 2.157 fold | 4.951 fold | 0.712 fold | 1.604 fold | – | – | – | –
24 | GSGQSTLKRINQQT | – | – | – | – | 1.168 fold | 13.442 fold | 1.184 fold | 0.534 fold
25 | GERAFPTSGQNQQT | 1.775 fold | 6.515 fold | 0.362 fold | 0.972 fold | – | – | – | –
26 | GNGHSMRPNQNQQT | 1.560 fold | 2.341 fold | 0.376 fold | 0.693 fold | – | – | – | –
27 | GCTTRLNSGQNQQT | – | – | – | – | 1.276 fold | 0.000 fold | 0.618 fold | 0.184 fold
28 | GGYHSQTSGQNQQT | 1.978 fold | 2.642 fold | 1.525 fold | 1.740 fold | – | – | – | –
29 | GSGQNQQTSQSPPT | – | – | – | – | 1.194 fold | 1.208 fold | 0.478 fold | 0.851 fold
30 | GSGQNLGLLGAQQT | – | – | – | – | 1.161 fold | 1.458 fold | 0.226 fold | 0.524 fold
31 | GSGQNQQTVMTARA | 1.117 fold | 1.535 fold | 0.843 fold | 0.995 fold | – | – | – | –
32 | GSGQNQRSSGGVQT | 1.723 fold | 2.056 fold | 1.165 fold | 1.805 fold | – | – | – | –
33 | GSGYKDTYGQNQQT | 1.091 fold | 0.854 fold | 0.448 fold | 0.717 fold | – | – | – | –
34 | GSLSHMESGQNQQT | 1.120 fold | 0.829 fold | 0.265 fold | 0.489 fold | – | – | – | –
35 | GNIQWQGSGQNQQT | 2.468 fold | 6.266 fold | 0.837 fold | 1.182 fold | – | – | – | –
36 | GSGVQHSLPQNQQT | 1.639 fold | 0.764 fold | 0.387 fold | 0.440 fold | – | – | – | –
37 | GGGPMAGSGQNQQT | 1.735 fold | 2.815 fold | 0.372 fold | 1.049 fold | – | – | – | –
38 | GSGLSHATQQNQQT | 2.640 fold | 7.819 fold | 0.638 fold | 1.111 fold | – | – | – | –
39 | GSGQHSPHALNQQT | 1.064 fold | 1.412 fold | 0.573 fold | 0.885 fold | – | – | – | –
40 | GLNHFGASGQNQQT | 3.802 fold | 3.188 fold | 0.579 fold | 0.774 fold | – | – | – | –
